Results published in US9119853B2, “Sanglifehrin based compounds” (priority 2010, dated 2015).
In brackets after ≈: the same amount, converted by molar mass. Where two headings read alike, the source gives them in different places.

Columns and labels:
[1] = test system: HBV; details: Ptak et al. 2008; read-out: IC50 against HBV; cited from earlier work
[2] = test system: HIV-1; details: clinical, Steyn et al., 2006, cited from earlier work
[3] = test system: HCV genotype 1b I389luc-ubi-neo/NS3-3'/5.1 replicon in Huh5.2 cells; test: microbe, parasite or virus in culture; assay type: cell-based, Hepatitis C Virus
[4] = test system: peripheral blood mononuclear cells (PBMC); test: Mixed lymphocyte reaction (MLR) for immunosuppressant activity; assay type: cell-based, human; details: 3H-thymidine proliferation; read-out: Human MLR IC50
[5] = pH 7.4
[6] = molecular target: CyPA (Homo sapiens, UniProt P62937); details: cited from earlier work
[7] = test system: Huh5.2 cells; test: Anti-metabolic effect (MTS) in the replicon cell line
[8] = molecular target: T1, GST-CypD / Con1 NS5A-His complex (Homo sapiens, UniProt P30405); test: ELISA analysis of Cyp-NS5A interaction (CypD-NS5A disruption)
[9] = test system: HIV (pNL4.3-GFP / pNL4.3-BaL-GFP) in CD4+ HeLa cells; test: microbe, parasite or virus in culture; assay type: cell-based
[10] = test system: HIV (pNL4.3-GFP / pNL4.3-BaL-GFP) in Jurkat cells; test: microbe, parasite or virus in culture; assay type: cell-based; details: Human immunodeficiency virus 1, BAL, 48 h, read-out: T cells EC50
[11] = test system: HIV (pNL4.3-GFP / pNL4.3-BaL-GFP) in CD4+ T-lymphocytes; test: microbe, parasite or virus in culture; assay type: cell-based; details: Human immunodeficiency virus 1, BAL, T-lymphocyte, 48 h, read-out: CD4+ T-lymphocytes EC50
[12] = test system: HIV (pNL4.3-GFP / pNL4.3-BaL-GFP) in macrophages; test: microbe, parasite or virus in culture; assay type: cell-based; details: Human immunodeficiency virus 1, BAL, Macrophage, 48 h, read-out: Macrophages EC50
[13] = test system: HBV in HepG2 2.2.15 cells; test: HBV antiviral assay (HBV DNA by qPCR); assay type: cell-based, Hepatitis B Virus
[14] = Cell viability (dye uptake) in the HBV assay; assay type: cell-based; details: human, HepG2 2.2.15 cells; read-out: TC50
Protocol: (§1) Antiviral efficacy against HBV may be tested as follows: HepG2 2.2.15 cells are plated in 96-well microtiter plates. After 16-24 hours the confluent monolayer of HepG2 2.2.15 cells is washed and the medium is replaced with complete medium containing various concentrations of a test compound in triplicate (eg six half-log concentrations). Three days later the culture medium is replaced with fresh medium containing the appropriately diluted test compounds. Six days following the initial administration of the test compound, the cell culture supernatant is collected, treated with pronase and then used in a real-time quantitative TaqMan qPCR assay. The PCR-amplified HBV DNA is detected in real-time by monitoring increases in fluorescence signals that result from the exonucleolytic degradation of a quenched fluorescent probe molecule that hybridizes to the amplified HBV DNA. For each PCR amplification, a standard curve is simultaneously generated using dilutions of purified HBV DNA. Antiviral activity is calculated from the reduction in HBV DNA levels (IC50). A dye uptake assay is then employed to measure cell viability, which is used to calculate toxicity (TC50). The therapeutic index (TI) is calculated as TC50/IC50.

[15] = test system: HepG2 2.2.15 cells; test: Cell viability (dye uptake) in the HBV assay; assay type: cell-based; details: at concentrations up to 32 μM
Protocol: as §1

[16] = physchem; details: pH 7.4, aqueous buffer, kinetic from dmso stock
[17] = molecular target: T1, GST-CypD / Con1 NS5A-His complex; test: biochemical
[18] = Anti-metabolic effect (MTS) in the replicon cell line; details: human
[19] = Hepatitis C virus, Huh-5-2, 72 h

T1 sequence (P30405 30-207, one chain of several): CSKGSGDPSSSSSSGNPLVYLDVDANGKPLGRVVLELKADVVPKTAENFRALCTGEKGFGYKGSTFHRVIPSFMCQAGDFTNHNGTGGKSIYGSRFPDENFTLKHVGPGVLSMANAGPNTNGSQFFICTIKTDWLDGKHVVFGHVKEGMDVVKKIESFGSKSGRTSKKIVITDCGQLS
Chain of CyPA (P62937 whole entry): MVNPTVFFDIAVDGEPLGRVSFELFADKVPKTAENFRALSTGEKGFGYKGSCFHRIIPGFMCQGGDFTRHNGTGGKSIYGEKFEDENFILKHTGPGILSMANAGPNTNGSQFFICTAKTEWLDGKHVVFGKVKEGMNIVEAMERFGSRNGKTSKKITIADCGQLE

C/C=C/C[C@@H](C)[C@@H](O)[C@H]1C(=O)N[C@@H](CC)C(=O)N(C)[C@H](C)C(=O)N(CC)[C@@H](C(C)C)C(=O)N[C@@H](C(C)C)C(=O)N(C)[C@@H](CC(C)C)C(=O)N[C@@H](C)C(=O)N[C@H](C)C(=O)N(C)[C@@H](CC(C)C)C(=O)N(C)[C@@H](CC(C)C)C(=O)N(C)[C@@H](C(C)C)C(=O)N1C [DEBIO-025]
IC50 [1]: 4100 nM | reduction of HIV-1 RNA levels ([2]; in nine patients): ≥ 0.5 log10 copies/mL | reduction of HIV-1 RNA levels ([2]; in two patients): > 1 log10 copies/mL

CC[C@H]1C[C@H](C)[C@@]2(NC1=O)O[C@@H](C[C@H](O)[C@@H](C)CC/C=C/C=C(\C)[C@@H]1C/C=C/C=C/[C@H](O)[C@H](C)[C@@H](O)[C@@H](CCC(C)=O)C(=O)N[C@@H](C(C)C)C(=O)N[C@@H](Cc3cccc(O)c3)C(=O)N3CCC[C@H](N3)C(=O)O1)[C@H](C)[C@H](O)[C@@H]2C [Sanglifehrin A, 5, Sanglifehrin A, reference compound]
EC50 ([3]; read-out: EC50): 318 nM | EC90 ([3]; read-out: EC90): 5500 nM | IC50 [4]: 215 nM | Solubility [5]: 9.4 µM (≈ 10.2 µg/mL) | higher affinity for CyPA compared to CsA [6]: approximately 20 fold | CC50 ([7]; Huh5.2 cells, MTS, 72 hours): 9100 nM | cytotoxicity against the cell line (in words) ([7]; as shown by CC50): more cytotoxicity | IC50 [8]: 370 nM

CON(C)C(=O)/C=C/C=C(\C)[C@@H]1C/C=C/C=C/C=C(\C)[C@@H](O)[C@@H](CCC(C)=O)C(=O)N[C@@H](C(C)C)C(=O)N[C@@H](Cc2cccc(O)c2)C(=O)N2CCCC(N2)C(=O)O1 (stereo partly shown) [compound 29]
Selectivity index (CC50/EC50) [3]: 68.4 | potency in the Huh5.2 replicon assay (in words) [3]: very potent | EC50 [3, 19]: 293 nM | EC90 [3, 19]: 1500 nM | EC50 ([9]; Human immunodeficiency virus 1, BAL, HeLa, 48 h, read-out: HeLa cells EC50): 400 nM | potency at inhibiting HIV infection compared to cyclosporine A, 1 (in words) ([9]; four cell types): significantly more potent | EC50 [10]: 200 nM | EC50 [11]: 210 nM | EC50 [12]: 310 nM | inhibiting replication of HBV (in words) [13]: remarkably potent | EC50 ([13]; Hepatitis B virus, HepG2 2.2.15, six days, read-out: HBV EC50): < 100 nM | CC50 at 6 days [14]: > 32000 nM | cytotoxicity in HBV assay (in words) [15]: no cytotoxicity | Solubility [16]: 66 µM (≈ 53.2 µg/mL) | IC50 [17]: 250 nM | CC50 at 72 h [18]: 20200 nM | disruption of the CypD-NS5A complex (in words) [8]: potent disruption
